What was measured:
[1] = tested on: creatine kinase (CK) expression in cancer cells; experiment: CEST imaging of cancer cells cultured with PCr; assay type: cell-based; conditions: cancer cell line cultured with PCr for 1 hour; FIG. 2
Text: (§1) In certain embodiments, the radio frequency (RF) pulse can be provided at different frequency offsets. In certain embodiments, to detect the conversion of phosphocreatine to creatine, an RF pulse was applied at a frequency offset of about 1.8 ppm for a period of about 1 to about 3 seconds.
The creatine kinase (CK) expression in cancer cells cleaves the PCr into creatine (Cr), and can be responsible for the increase in CEST contrast from creatine amine protons.

[2] = tested on: CK enzyme expressed in the tumor; experiment: in vivo imaging of creatine kinase expression by monitoring conversion of PCr to Cr through CEST; conditions: 60 minutes following tail vein injection of PCr, versus base line CEST map, FIG. 3
Method: as §1
“b” is the base line CEST map from the same slice. “c” is a CEST map of the same slice at 60 minutes following tail vein injection of PCr.

CN(CC(=O)O)C(=N)NP(=O)(O)O [PCr, phosphocreatine]
elevation of the CEST contrast over cancer cells without PCr [1]: about 16%
increase in CEST contrast [2]: about 11%

Reference: patent US20160061919A1, “IMAGING OF CREATINE KINASE ENZYME EXPRESSION IN CANCEROUS TISSUES” (Sidra Medical and Research Center, priority 2014, published 2016)
